Experimental data from patent US20110207740A1, “PHARMACEUTICAL COMPOSITIONS” (priority 2003, published 2011).

Columns and labels:
pKa (titrated) = format: physicochemical
Procedure: As expected, solubility improves with ionization. However, even when essentially all of the compound carries a +1 charge, the aqueous solubility remains poor, e.g., at pH 4 the solubility is <2 μg/mL. Similarly, at pH 2 the average charge will be +2 but, the solubility for this strongly charged compound is only 1 mg/mL. Based on the pKa values, under still more acidic conditions this compound will have an average charge of +3 and the solubility might be expected to increase further. However, no further increase in solubility has been achieved, i.e., at pH 1.0 (0.1 NHCL) the solubility of this compound decreases to <1 mg/mL. This type of decrease in solubility is consistent with the formation of insoluble chloride salts.

[1] = Aqueous solubility (buffers, pH dependence); format: physicochemical
Text: As expected, solubility improves with ionization. […] This type of decrease in solubility is consistent with the formation of insoluble chloride salts. […] However, as shown in the Table 1 below, the A2a receptor antagonist compound described above has both low aqueous and non-aqueous solubility.

[2] = Non-aqueous solubility (ethanol, propylene glycol, soybean oil); format: physicochemical
Text: However, as shown in the Table 1 below, the A2a receptor antagonist compound described above has both low aqueous and non-aqueous solubility.

[3] = Formula 1 concentration in acidified propylene glycol stock solutions and after dilution with deionized water; format: physicochemical
Text: [table] […] In this way, the concentration of propylene glycol was decreased 10 fold from the initial concentration of 86% to a final concentration of 8.6%. […] Similarly, Formula 1 solubility should not be affected by the 2-10× dilution of sodium docusate as this surfactant will still be present at levels above its critical micelle concentration (CMC).

[4] = Extraction of Formula 1 from stock solutions into soybean oil; format: physicochemical; conditions: excess Formula 1
[5] = Formula I:docusate complex dissolved in propylene glycol (Example 1); format: physicochemical
Procedure: A non-aqueous embodiment of the formulations of the present invention was prepared as set forth by the following procedure. A first solution was prepared by adding 100 mg of the compound of Formula I above to 500 mL of 0.01 NHCL. Next, a second Solution was prepared by adding 20 grams of sodium docusate to 500 mL of 0.01 NHCL. These two solutions were mixed and a complex of the compound of Formula I and docusate sodium was precipitated from solution. The precipitate was thereafter separated by centrifuging the mixture, decanting the supernatant and then drying the residue complex.
The dried residue was then dissolved in a small quantity of propylene glycol and the concentration of the compound of Formula I in this solution was determined to be 2.5 mg/mL.

[6] = Precipitation from acidic aqueous solution in presence of sodium docusate; format: physicochemical; conditions: pH 2.0, 0.1 mg/mL aqueous solution
Text: For aqueous formulations of the present invention, surfactants such sodium docusate are typically added to improve aqueous solubility. However, sodium docusate actually decreases the aqueous solubility of 7-[2-[4-[4-(methoxyethoxy)phenyl]1-piperazinyl]ethyl]-2-(2-furanyl)-7H-pyrazolo[4,3-e]triazolo[1,5-c]pyrimidin-5-amine under acidic conditions. […] More specifically, by “ion-pair” it is meant to mean the non-covalent bonding of two oppositely charged molecules.

A2a receptor = A2a receptor (Homo sapiens, UniProt P29274); conditions: cited from earlier work
Sequence of A2a receptor (P29274 whole entry): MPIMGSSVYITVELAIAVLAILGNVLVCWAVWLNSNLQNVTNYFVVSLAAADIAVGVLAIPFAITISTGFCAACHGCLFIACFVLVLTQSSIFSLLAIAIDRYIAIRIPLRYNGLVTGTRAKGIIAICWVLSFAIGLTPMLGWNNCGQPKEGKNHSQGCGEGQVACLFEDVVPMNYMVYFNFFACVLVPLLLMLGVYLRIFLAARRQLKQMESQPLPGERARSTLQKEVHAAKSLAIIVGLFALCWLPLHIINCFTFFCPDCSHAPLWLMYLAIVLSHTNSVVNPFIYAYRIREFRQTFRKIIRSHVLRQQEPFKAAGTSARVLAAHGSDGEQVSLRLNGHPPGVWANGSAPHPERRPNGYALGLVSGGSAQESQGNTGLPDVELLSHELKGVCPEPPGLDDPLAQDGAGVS

COCCOc1ccc(N2CCN(CCn3ncc4c3nc(N)n3nc(-c5ccco5)nc43)CC2)cc1 [Formula 1, 7-[2-[4-[4-(methoxyethoxy)phenyl]1-piperazinyl]ethyl]-2-(2-furanyl)-7H-pyrazolo[4,3-e]triazolo[1,5-c]pyrimidin-5-amine]
pKa (pKa (titrated)): 6.87 | solubility ([1]; 0.1 N HCl, pH 1, simulated gastric fluid, pH 1.0 (0.1 NHCL)): < 1000 µg/mL | Aqueous Solubility ([1]; Buffer pH 4): 1.7 µg/mL | solubility ([1]; aqueous buffer, pH 3, aqueous buffer, Buffer pH 3): 105 µg/mL | solubility ([1]; aqueous buffer, pH 4, aqueous buffer, Buffer pH 4): < 2 µg/mL | solubility ([1]; aqueous buffer, pH 7.4, aqueous buffer, Buffer pH 7.4): < 0.005 µg/mL | solubility ([1]; aqueous medium, pH 2, simulated gastric fluid, pH 2): 1000 µg/mL | Solubility in aqueous media ([1]; neutral pH): virtually insoluble | solubility ([2]; ethanol, organic solvent or mixture): 100 µg/mL | solubility ([2]; propylene glycol, organic solvent or mixture, Propylene Glycol (neutral compound)): ~30 µg/mL | solubility ([2]; soybean oil, oil or lipid): < 70 µg/mL | Formula 1 concentration, 86% PG/(Stock) ([3]; Stock solution 1: acidified propylene glycol (86% v/v, citric acid/HCl to pH 3.4), undiluted): 9.8 mg/mL | Formula 1 concentration, 43% PG/DF2 ([3]; Stock solution 1: acidified propylene glycol, diluted with deionized water DF2): 4.6 mg/mL | Formula 1 concentration, 17% PG/DF4 ([3]; Stock solution 1: acidified propylene glycol, diluted with deionized water DF4): 1.9 mg/mL | Formula 1 concentration, 8.6% PG/DF10 ([3]; Stock solution 1: acidified propylene glycol, diluted with deionized water DF10): 0.97 mg/mL | Formula 1 concentration, 86% PG/(Stock) ([3]; Stock solution 2: acidified propylene glycol + 36 mg/mL Tween 80, undiluted): 8.7 mg/mL | Formula 1 concentration, 43% PG/DF2 ([3]; Stock solution 2: acidified propylene glycol + Tween 80, diluted with deionized water DF2): 4.0 mg/mL | Formula 1 concentration, 17% PG/DF4 ([3]; Stock solution 2: acidified propylene glycol + Tween 80, diluted with deionized water DF4): 1.8 mg/mL | Formula 1 concentration, 8.6% PG/DF10 ([3]; Stock solution 2: acidified propylene glycol + Tween 80, diluted with deionized water DF10): 0.78 mg/mL | Formula 1 concentration, 86% PG/(Stock) ([3]; Stock solution 3: acidified propylene glycol + 61 mg/mL docusate sodium, undiluted): 9.2 mg/mL | Formula 1 concentration, 43% PG/DF2 ([3]; Stock solution 3: acidified propylene glycol + docusate sodium, diluted with deionized water DF2): 0.14 mg/mL | Formula 1 concentration, 17% PG/DF4 ([3]; Stock solution 3: acidified propylene glycol + docusate sodium, diluted with deionized water DF4): 0.037 mg/mL | Formula 1 concentration, 8.6% PG/DF10 ([3]; Stock solution 3: acidified propylene glycol + docusate sodium, diluted with deionized water DF10): 0.011 mg/mL | Maximum concentration relative to solubility in propylene glycol ([3]; acidified propylene glycol without docusate): 300 times | Concentration relative to solubility in propylene glycol ([3]; direct addition to acidified propylene glycol and docusate): greater than 300 times | Concentration in acidified propylene glycol solution ([3]; propylene glycol solution acidified to ionize the active compound): more than 9 mg/mL | Soybean Oil Amt. Extracted ([4]; extracted from stock solution 1 (acidified propylene glycol)): 0.006 mg/mL | Soybean Oil Amt. Extracted ([4]; extracted from stock solution 2 (acidified propylene glycol + Tween 80)): 0.007 mg/mL | Soybean Oil Amt. Extracted ([4]; extracted from stock solution 3 (acidified propylene glycol + docusate sodium)): 0.28 mg/mL | Solubility relative to compound alone in propylene glycol ([5]; Formula I:docusate complex in propylene glycol): more than 80 fold | Concentration of the compound of Formula I in propylene glycol solution ([5]; dried Formula I:docusate sodium complex dissolved in propylene glycol): 2.5 mg/mL | Concentration relative to active compound and propylene glycol only ([5]; formulated with docusate sodium in acidified propylene glycol): 80 times | Behaviour of solution in presence of sodium docusate [6]: precipitate out of solution | Potency as an A2a receptor antagonist (A2a receptor): considerable potency
